Data reported in patent US7666390B2, “DTPA derivatives and metal complexes thereof, and radiation source and contrast agent including the metal complexes” (Korea Atomic Energy Research Institute, priority 2005, dated 2010).

Assays:
[1] = Urinary excretion of the radioactive metal (^99mTc) complex in animals, gamma camera imaging and renal time activity curves; format: in vivo, rabbits (New Zealand White); details: male rabbits; for time to achieve maximum activity (Tmax) / time to eliminate half of the maximum activity (T1/2): ear vein injection 1.0±0.1 mCi, from ROI time activity curve
Method: (§1) Male rabbits (New Zealand White) were anesthetized by the intramuscular injection of 25 mg/kg of Ketamine (Yuhan Corporation, Korea) and 6 mg/kg of Rompun (Bayer Korea), and then received through the ear vein 1.0±0.1 mCi of the ^99mTc-DTPA derivative complex, ^99mTc-DTPA-mono(3-amido-2,4,6-triiodobenzoic acid). The behavior of the drug was monitored for 30 min by scanning the whole body of rabbits using a gamma camera (SIMENSE, Germany). The gamma camera was equipped with a parallel hole collimator, and was set at an energy level of 140 keV to obtain images.
In addition, regions of interest (ROIs) were created around the right and left kidneys to produce time activity curves. From the time activity curves, time to achieve maximum activity (Tmax) and time to eliminate half of the maximum activity (T1/2) for each kidney were calculated using a computer system (SINCTRON IV, Germany), and the results are given in FIG. 4.

[2] = Urinary excretion of the radioactive metal (^166Ho) complex in animals, gamma camera imaging and renal time activity curves; format: in vivo, rabbits (New Zealand White); details: male rabbits; for half time of the maximum activity (T1/2) / time to maximum activity (Tmax): ear vein injection 3.0±0.2 mCi, from ROI time activity curve
Method: as §1, with “by” for “by the”, “3.0±0.2” for “1.0±0.1”, “^166Ho-DTPA-bis(5-amido-2,4,6-triiodoisophthalic” for “the ^99mTc-DTPA derivative complex, ^99mTc-DTPA-mono(3-amido-2,4,6-triiodobenzoic”, “81 keV. At this energy level, images were obtained using a medium-energy collimator with a window width of 20%.” for “140 keV to obtain images.”
In addition, regions of interest (ROIs) were created around the right and left kidneys to produce time activity curves. From the time activity curves, time to maximum activity (Tmax) and half time of the maximum activity (T1/2) for each kidney were calculated using a computer system (SINCTRON IV, Germany), and the results are given in FIG. 6.

## ^99mTc-DTPA-mono(3-amido-2,4,6-triiodobenzoic acid)
[1]; 30 min after injection
  radioactivity in the kidneys: decrease to a level near the non-specific background signal
[1]; left kidney
  time to achieve maximum activity (Tmax): 1 min
  time to eliminate half of the maximum activity (T1/2): 5 min
[1]; ear vein injection, whole body gamma camera scan for 30 min, 140 keV
  time from injection by which mostly excreted via the kidneys and bladder: ≤ 30 min
[1]; right kidney
  time to achieve maximum activity (Tmax): 1 min
  time to eliminate half of the maximum activity (T1/2): 5.5 min

## ^166Ho-DTPA-bis(5-amido-2,4,6-triiodoisophthalic acid)
[2]; 30 min after injection
  radioactivity in the kidneys: decrease to a level near the non-specific background signal
[2]; left kidney
  half time of the maximum activity (T1/2): 6.5 min
  time to maximum activity (Tmax): 1.5 min
[2]; ear vein injection, whole body gamma camera scan for 30 min, 81 keV
  time from injection by which mostly excreted via the kidneys and bladder: ≤ 30 min
[2]; right kidney
  half time of the maximum activity (T1/2): 7.5 min
  time to maximum activity (Tmax): 1.75 min
